Results on one compound are retold here after US20200315996A1 (Board of Trustees, Southern Illinois University, priority 2016, published 2020).

One series deals with endometriotic lesions. The experiment in a line: Endometriotic lesions examined on PND 21 (Study 2). Format: in vivo, mice. As to conditions: 200 mg/kg b.w./day; examined 3 weeks after the final dosage. How it is done: The sham surgery was performed following the same steps as the endometriosis surgery except that no donor tissues were implanted onto the peritoneal walls of those mice; only sutures were applied to the peritoneal walls. […] The recipient mice continued receiving oral daily niclosamide treatments until mouse pups were born, after which niclosamide treatment was discontinued. Three weeks after the pups were born, on postnatal day (PND) 21, the recipient mice were necropsied and the pups were weaned. For each mated mouse, the following parameters were measured and recorded: the time of the formation of the vaginal plug after mating (days); the length of time that the mated mouse gestated or was pregnant (days); the number of pups born to each mated mouse; and the size and volume of the endometriotic lesions harvested from the mice after necropsy. Tissues were harvested from the mice, including endometriotic lesions and peritoneal walls to analyze the expression of proteins and genes of interest.

Series [1] deals with genes related to inflammation. The experiment in a line: RNA sequencing and qPCR of endometriotic lesions. Format: in vivo, mice. Conditions: 3 weeks vs control. How it is done: The endometriotic lesions were screened by RNA sequencing for the expression of a variety of genes of interest. Total RNA was isolated from the lesions using the RNeasy mini kit (#74104, Qiagen). RNA quality was assessed, and RNA-sequencing (RNA-seq) were performed at the Functional Genomics Core Facility of University of Illinois. Briefly, the stranded RNA-seq libraries were prepared with IIlumina's TruSeq Stranded RNA Sample Prep kit (# RS-122-2201, Illumina). The libraries were pooled in equimolar concentration, and the pool was quantitated by qPCR and sequenced on one lane for 101 cycles on a HiSeq2500 (Illumina) using a HiSeq SBS sequencing kit (# FC-401-4002, Illumina). Fastq files were generated and demultiplexed with the bcl2fastq v1.8.4 Conversion Software (Illumina). Quantitative PCR (qPCR) was performed as described previously [Reardon, 2012]. The 5′-3′ sequences of the primer pairs (forward and reverse primer pairs) used to determine the presence of different genes are shown in Table 3. For each gene, the name of the gene, the accession number of the gene, the 5′-3′ sequence of the paired primers, and the length of the amplicon obtained is provided in Table 3. All experimental data were subjected to one-way ANOVA tests and the differences between individual means were tested by a Tukey multiple-range test using Prism 5.0 (GraphPad). qPCR data were tested by t-test using Prism 5.0. Tests of significance were performed using the appropriate error terms according to the expectation of the mean squares for error. […] Data are presented as mean with standard error of the mean (SEM).
Background: Real-time PCR tracks product formation cycle by cycle.

In another series the test system is female mice. The series can be described thus: Effect of oral niclosamide on reproductive function (Study 2). Format: in vivo. How it is done:
The sham surgery was performed following the same steps as the endometriosis surgery except that no donor tissues were implanted onto the peritoneal walls of those mice; only sutures were applied to the peritoneal walls.
The recipient mice continued receiving oral daily niclosamide treatments until mouse pups were born, after which niclosamide treatment was discontinued. Three weeks after the pups were born, on postnatal day (PND) 21, the recipient mice were necropsied and the pups were weaned.
For each mated mouse, the following parameters were measured and recorded: the time of the formation of the vaginal plug after mating (days); the length of time that the mated mouse gestated or was pregnant (days); the number of pups born to each mated mouse; and the size and volume of the endometriotic lesions harvested from the mice after necropsy. Tissues were harvested from the mice, including endometriotic lesions and peritoneal walls to analyze the expression of proteins and genes of interest.
For each pup born to a mated mouse, its weight (g) at birth and on PND 21 was measured.

Another series relates to rats. Conditions: orally for 4 weeks; cited from earlier work.
The subject of a further series is PTGS2 (COX2). The series can be described thus: Immunohistochemistry of endometriotic lesions, PTGS2. Format: in vivo, mice. As to conditions: 3 weeks; for % of PTGS2 positive cells/total cells/0.007 mm^2, Stroma: control 20.1 ± 2.2; for % of PTGS2 positive cells/total cells/0.007 mm^2, Epithelium: control 98.4 ± 0.5. The text has this: (§1) The presence and location of different proteins in the tissues obtained from the recipient mice. Samples of uterine tissue were isolated from the recipient mice, fixed by standard histological methods, and embedded in paraffin. Thin sections (5 μm) of the paraffin-embedded tissues were screened with standard immunohistochemical methods using antibodies to identify the expression of in the uterine tissues.
Primary antibodies that recognized MKI67 (Ki67), PECAM1 (CD31), ESR1, PGR, p-CHUK (IKK), p-STAT3, NOS2 (iNOS) and PTGS2 (COX2), and Vectastain Elite ABC Kit (# PK-6101), Mouse on Mouse Basic Kit (# BMK-2202, Vector laboratories) or DyLight-conjugated secondary antibody (#711-516-152, Jackson ImmunoResearch Lab) were used to show the presence of the proteins in the tissues, which were examined under microscopes.
The primary antibodies used in these analyses were: anti-MKI67 (Ki67, 1:200 dilution, 550609, BD Biosciences), anti-PECAM1 (CD31, 1:100 dilution, ab28364, Abcam), anti-ESR1 (1:100 dilution, sc-542, Santa Cruz Biotechnology), anti-PGR (1:200 dilution, RB-9017-P0, Thermo Scientific), anti-p-CHUK (IKK, 1:150 dilution, 2697, Cell Signaling Technology), anti-p-STAT3 (1:50 dilution, 9145, Cell Signaling Technology), anti-NOS2 (iNOS, 1:50 dilution, 610333, BD Biosciences) and anti-PTGS2 (COX2, 1:50 dilution, RM-9121, Thermo Scientific).
The expression of MKI67, ESR1, PGR, p-CHUK, p-STAT3, NOS2 and PTGS2 proteins in uterine tissues, as determined by immunohistochemical analysis of uterine tissue sections, was semiquantitatively analyzed. Levels of apoptosis were analyzed by TUNEL assay and also semiquantitatively analyzed. Histological sections were obtained from 4 different lesions. For each section, three different areas measuring 0.007 mm^2 were chosen. In each of those areas, the total number of epithelial or stromal cells was counted, as was the number of cells that tested positive for expressing MKI67 (a marker of cellular proliferation), steroid receptors ESR1 and PGR, and inflammatory signaling molecules p-CHUK, p-STAT3, NOS2 and PTGS2 proteins.
The expression of PTGS2 (COX2), an inflammatory molecule […] by NFκB and STAT3 signaling, was examined with a primary antibody against PTGS2.

A further series deals with PECAM1 (CD31). The experiment in a line: Immunohistochemistry of endometriotic lesions, PECAM1 (endothelial cells). It counts as in vivo, mice. Conditions: 3 weeks, control 38.3 ± 3.6.
Source text: as §1
Primary antibodies that recognized MKI67 (Ki67), PECAM1 (CD31), ESR1, PGR, p-CHUK (IKK), p-STAT3, NOS2 (iNOS) and PTGS2 (COX2), and Vectastain Elite ABC Kit (# PK-6101), Mouse on Mouse Basic Kit (# BMK-2202, Vector laboratories) or DyLight-conjugated secondary antibody (#711-516-152, Jackson ImmunoResearch Lab) were used to show the presence of the proteins in the tissues, which were examined under microscopes. […]
The expression of PECAM1, a marker of endothelial cells, was semiquantitatively analyzed using areas of 0.02 mm^2 (3 different areas counted from each section, with sections obtained from 4 different lesions), and semiquantitatively analyzed.

For the compound `O=C(Nc1ccc([N+](=O)[O-])cc1Cl)c1cc(Cl)ccc1O` [niclosamide, 5-chloro-N-(2-chloro-4-nitrophenyl)-2-hydroxybenzamide], in the series with endometriotic lesions, the “lesion sizes on PND 21” value was “maintained the reduction of lesion sizes”. In series [1] (200 mg/kg b.w./day), the “Ccl17 level in the endometriotic lesions” value is “increased”. Besides, the “expression of genes related to inflammation (Cxcl14, Lep, Lpo, Muc13, Trpc3 and Ptprz1) in the endometriotic lesions” value in series [1] (qPCR n=6-8, 200 mg/kg b.w./day) is on record as “significantly decreased”. Besides, the “expression of Id4 and Wnt7a in treated lesions” value in series [1] (qPCR, 200 mg/kg b.w./day) is reported as “reduced”. Moreover, the “time to receive vaginal plug, between the groups” value in the series on female mice (0 or 200 mg/kg b.w./day oral, mated after 4 days of treatment) was “No significant differences”. Also, the “pregnancy and birth in recipient mice exposed to niclosamide” value in the series on female mice (200 mg/kg b.w./day oral until pups were born) is “became pregnant and gave birth”. Further, in the series on female mice (200 mg/kg b.w./day oral until pups were born vs 0), the “gestational length, number of pups, and weight of pups at birth and on PND21” value is “did not cause any differences”. In the series with rats, the “dose that elicits no adverse effects” value is listed as “up to 2000 mg/kg daily”. In addition, the “% of PTGS2 positive cells/total cells/0.007 mm^2, Stroma” value with PTGS2 (COX2) (100 mg/kg b.w./day oral) is 20.3 ± 3.3%; with PTGS2 (COX2) (200 mg/kg b.w./day oral), 22.8 ± 2.0%. The “% of PTGS2 positive cells/total cells/0.007 mm^2, Epithelium” value in the series on PTGS2 (COX2) (100 mg/kg b.w./day oral) came out at 98.2 ± 0.5%; with PTGS2 (COX2) (200 mg/kg b.w./day oral) it was 98.7 ± 0.7%. For the same compound, the “Cell number of PECAM1 positive cells/0.02 mm^2” value in the series with PECAM1 (CD31) (100 mg/kg b.w./day oral) was 34.7 ± 3.6 cells/0.02 mm^2; in the series with PECAM1 (CD31) (200 mg/kg b.w./day oral), 32.7 ± 2.8 cells/0.02 mm^2.
